Assay results: PubChem BioAssay (NCI)
“And” between values parts separate entries of the source, which are not always exact repeats. Identical values can stand only once.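 Cultured in 96-well plates, cells were exposed to test compound for 48 hours across five concentrations. GI50 is the concentration that inhibits growth by half. Definition used: TGI = concentration required for complete inhibition of growth.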

Assays:
Assay in all cases: NCI tumour cell line growth inhibition, 48 h
A498 renal = system: A498 renal
EKVX NSCLC = system: EKVX NSCLC
HCC-2998 colon = system: HCC-2998 colon
IGROV1 ovarian = system: IGROV1 ovarian
KM20L2 colon = system: KM20L2 colon
LOX IMVI melanoma = system: LOX IMVI melanoma
M19-MEL melanoma = system: M19-MEL melanoma
MOLT-4 leukemia = system: MOLT-4 leukemia
NCI-H226 lung = system: NCI-H226 lung
NCI-H460 lung = system: NCI-H460 lung
OVCAR-4 ovarian = system: OVCAR-4 ovarian
RXF 393 renal = system: RXF 393 renal
SK-OV-3 ovarian = system: SK-OV-3 ovarian
SNB-19 CNS = system: SNB-19 CNS

Row | SMILES | TGI (A498 renal) | TGI (EKVX NSCLC) | TGI (HCC-2998 colon) | TGI (IGROV1 ovarian) | TGI (KM20L2 colon) | TGI (LOX IMVI melanoma) | TGI (M19-MEL melanoma) | TGI (MOLT-4 leukemia) | TGI (NCI-H226 lung) | TGI (NCI-H460 lung) | TGI (OVCAR-4 ovarian) | TGI (RXF 393 renal) | TGI (SK-OV-3 ovarian) | TGI (SNB-19 CNS) | GI50 (EKVX NSCLC) | GI50 (HCC-2998 colon) | GI50 (LOX IMVI melanoma) | GI50 (MOLT-4 leukemia) | GI50 (NCI-H460 lung) | GI50 (SNB-19 CNS)
1 | CCOC(C)OC1CC(n2cc(C)c(=O)[nH]c2=O)OC1CO (configuration not stated) | > 100 µM | > 100 µM | > 100 µM | > 100 µM | > 100 µM | > 100 µM | > 100 µM | > 100 µM | > 100 µM | > 100 µM | > 100 µM | > 100 µM | > 100 µM | > 100 µM | – | – | – | – | – | –
2 | CCOC(=O)Cn1c(=O)c(C)cn(COCCO)c1=O | > 100 µM | > 100 µM | > 100 µM | > 100 µM | – | > 100 µM | – | > 100 µM | > 100 µM | > 100 µM | > 100 µM | > 100 µM | – | > 100 µM | – | – | – | – | – | –
3 | CN1CN(C(=O)N2CN(C)C(=O)N(C)C2)CN(C)C1=O | > 100 µM | > 100 µM | > 100 µM | > 100 µM | > 100 µM | > 100 µM | > 100 µM | > 100 µM | > 100 µM | – | – | – | > 100 µM | > 100 µM | – | – | – | – | – | –
4 | CC1OC(=O)C(C(C)C)NC(=O)C(C(C)C)OC(=O)C(C(C)C)NC(=O)C(C)OC(=O)C(C(C)C)NC(=O)C(C(C)C)OC(=O)C(C(C)C)NC(=O)C(C)OC(=O)C(C(C)C)NC(=O)C(C(C)C)OC(=O)C(C(C)C)NC1=O (configuration not stated) | 0.0383 µM | – | 1.29 µM | 5.34 µM | 0.493 µM | – | 6.28 µM | 0.00858 µM | 0.779 µM | 0.182 µM and 0.185 µM | – | 0.328 µM | 0.225 µM | 1.25 µM | < 0.1 nM | < 0.1 nM | < 0.1 nM | < 0.1 nM | < 0.1 nM | < 0.1 nM
5 | CCOC(=O)C1=C(C)N(C2OC(COC(=O)c3ccccc3)C(OC(=O)c3ccccc3)C2OC(=O)c2ccccc2)C(=S)NC1c1ccccc1 (configuration not stated) | > 100 µM | 62.2 µM | > 100 µM | > 100 µM | > 100 µM | > 100 µM | > 100 µM | 80.6 µM | > 100 µM | > 100 µM | > 100 µM | – | > 100 µM | > 100 µM | – | – | – | – | – | –
6 | CCN(CC)CCO[Si](OCCN(CC)CC)(OCCN(CC)CC)OCCN(CC)CC | – | > 100 µM | > 100 µM | > 100 µM | > 100 µM | > 100 µM | > 100 µM | – | > 100 µM | > 100 µM | > 100 µM | > 100 µM | > 100 µM | > 100 µM | – | – | – | – | – | –
7 | O=C(CCC1CCCCN1)Nc1ccc2c(c1)C(=O)c1ccc(NC(=O)CCN3CCCCC3)cc1C2=O (configuration not stated) | 16.2 µM | – | – | 31.2 µM | 14.5 µM | 2.66 µM | 5.71 µM | – | 18.6 µM | 23.9 µM | 5.38 µM | 2.07 µM | 70.1 µM | – | – | – | – | – | – | –
8 | CN/N=C(\C(=O)Nc1ccc(C)c(C)c1)C(C(=O)OC)c1nc2ccc([N+](=O)[O-])cc2[nH]c1=O (configuration not stated) | > 100 µM | > 100 µM | > 100 µM | > 100 µM | > 100 µM | > 100 µM | > 100 µM | > 100 µM | > 100 µM | > 100 µM | > 100 µM | > 100 µM | > 100 µM | > 100 µM | – | – | – | – | – | –
